Measured values as given in patent publication US7229987B2, “Multicyclic compounds for use as melanin concentrating hormone antagonists in the treatment of obesity and diabetes” (Eli Lilly and Company, priority 2002, dated 2007).

System: Diet-induced obese male Long-Evans rats
Assay: Block of MCH-stimulated food intake after intracerebroventricular injection
Type: in vivo, rat
Conditions: 82 nmol compound plus 2.1 nmol MCH, ICV; food intake at 2, 4 and 6 hours after injection; n=6 per group; p<0.05 vs. MCH alone; FIG. 1
Description: Diet-induced obese male Long-Evans rats (Harlan, Ind.) weighing 500–550 g at time of surgery were anesthetized with isoflurane. Stainless steel cannula guides (5 mm length, 26 gauge, Plastics One, Va.) were stereotaxically implanted in the lateral ventricle anteroposteriority: 0.8 mm caudal to bregma; and lateral: 1.5 mm from midline suture. Animals were individually housed in a temperature regulated room (24° C.) with a reverse 12 hour light/dark cycle (dark 10:00/22:00). Water and food (Teklad 95217, Harlan, Wis.) were available ad libitum. After surgery, animals were allowed to recover 7 days before experimental use. On test day, food was removed 1 hr prior to testing and animals (4 groups, n=6 per group) were injected between 0900 and 1000 with 5 μl of vehicle (artificial CSF), 2.1 nmol MCH, 82 nmol of compound of example 136, and MCH plus compound of example 136. Cumulative food intake was measured at 2, 4 and 6 hours after injection.

C(=C\c1ccc(-c2nnc(CSCCOc3ccccc3)o2)cc1)/CN1CCCC1 [Example 136, (E)-2-{[(2-phenoxyethyl)thio]methyl}-5-[4-(3-pyrrolidinopropen-1-yl)phenyl]-1,3,4-oxadiazole]
effect on orexigenic effect of exogenous MCH (cumulative food intake): completely blocked the orexigenic effect of exogenous MCH
